Assay results published in patent US11174253B2, “Compound and pharmaceutical composition containing the same” (ALPHALA CO., LTD., priority 2017, dated 2021).

What follows are compounds tested on hepatocellular carcinoma cell line Hep3B (assay: Growth inhibition of Hep3B cells, 48 hr treatment, Hoechst 33342 nucleus count (GE InCell 2200)). Details: Homo sapiens, Table 1, ratio of number of tumor cells treated with 10 μM compound to non-treated cells.
Assay type: cell-based
Description: The potency of selected compounds was defined by the growth inhibition ability to the hepatocellular carcinoma cell line Hep3B. The Hep3B cells were treated with selected compounds for 48 hr under 37° C., 5% CO2, and 95% relative humidity.
The number of treated cells was determined by GE InCell 2200 system, and treated cells were stained with Hoechst 33342 which can reveal the remained nucleus in culture plate. The proportion of survival cells then were calculated with the ratio of treated/non-treated cells. The growth inhibition/cytotoxic effect of selected compounds were evaluated by the following protocol of NCI-60 screening platform. The human tumor cell lines are plating on a 96 well plate in a fixed density 24 hr prior compound treatment. Compounds with multiple concentrations are then added into each well for further 48 hr incubation. Cell viability is assessed by MTS method and the potency of compound is represented by GI50 and LC50 calculated by MTS result.
Herein, the “Ratio in 10 μM (%)” in the following Tables 1-6 refers to the ratio of the number of tumor cells treated with 10 μM of selected compounds to the number of non-treated tumer cells.
For `CCOc1ccncc1-c1nnc(NC(=O)Cc2ccc3nc(N)sc3c2)s1` [Compound 1-34, 2-(2-aminobenzo[d]thiazol-6-yl)-N-(5-(4-ethoxypyridin-3-yl)-1,3,4-thiadiazol-2-yl)acetamide], the viability at 10 µM was 78%.
With `Nc1nc2ccc(CC(=O)Nc3nnc(-c4ccc(Br)c([N+](=O)[O-])c4)s3)cc2s1` [Compound 1-13, 2-(2-aminobenzo[d]thiazol-6-yl)-N-(5-(4-bromo-3-nitrophenyl)-1,3,4-thiadiazol-2-yl)acetamide] the viability at 10 µM was 60%.
For `Nc1nc2ccc(CC(=O)Nc3nnc(-c4ccccc4OC(F)(F)F)s3)cc2s1` [Compound 1-11, 2-(2-aminobenzo[d]thiazol-6-yl)-N-(5-(2-(trifluoromethoxy)phenyl)-1,3,4-thiadiazol-2-yl)acetamide], the viability at 10 µM was 68%.
Work on `Nc1nc2ccc(CC(=O)Nc3nnc(-c4ccc(I)cc4)s3)cc2s1` [Compound 1-12, 2-(2-aminobenzo[d]thiazol-6-yl)-N-(5-(4-iodophenyl)-1,3,4-thiadiazol-2-yl)acetamide] yielded a viability at 10 µM of 67%.

Same assay, conditions: Homo sapiens, Table 3, ratio of number of tumor cells treated with 10 μM compound to non-treated cells
Compound `CCOc1ccc(-c2cnc(NC(=O)Cc3ccc4nc(N)sc4c3)s2)cc1` [Compound 3-11, 2-(2-aminobenzo[d]thiazol-6-yl)-N-(5-(4-ethoxyphenyl)thiazol-2-yl)acetamide] has a viability at 10 µM of 60%.
With `CCOc1ccc(-c2nc(NC(=O)Cc3ccc4nc(N)sc4c3)sc2Cc2ccccc2)cc1` [Compound 3-14, 2-(2-aminobenzo[d]thiazol-6-yl)-N-(5-benzyl-4-(4-ethoxyphenyl)thiazol-2-yl)acetamide] the viability at 10 µM was 76%.

Same assay, conditions: Homo sapiens, Table 5, ratio of number of tumor cells treated with 10 μM compound to non-treated cells
Work on `CC(C)(C)c1ccc(Oc2sc(NC(=O)c3ccc([N+](=O)[O-])s3)nc2-c2ccc(C(C)(C)C)cc2)cc1` [Compound 5-96, N-(5-(4-(tert-butyl)phenoxy)-4-(4-(tert-butyl)phenyl)thiazol-2-yl)-5-nitrothiophene-2-carboxamide] yielded a viability at 10 µM of 47%.
`CCOc1ccccc1-c1nc(NC(=O)c2ccc([N+](=O)[O-])s2)sc1Oc1ccccc1` [Compound 5-5, N-(4-(2-ethoxyphenyl)-5-phenoxythiazol-2-yl)-5-nitrothiophene-2-carboxamide] was tested, and the viability at 10 µM was 47%.
In the case of `O=C(Nc1nc(-c2ccc(C(F)(F)F)cc2)c(Oc2ccccc2F)s1)c1ccc([N+](=O)[O-])s1` [Compound 5-83, N-(5-(2-fluorophenoxy)-4-(4-(trifluoromethyl)phenyl)thiazol-2-yl)-5-nitrothiophene-2-carboxamide], the viability at 10 µM is reported as 36%.
For `CCC(C)(C)c1ccc(-c2nc(NC(=O)c3ccc([N+](=O)[O-])s3)sc2Oc2ccccc2)cc1` [Compound 5-59, 5-nitro-N-(4-(4-(tert-pentyl)phenyl)-5-phenoxythiazol-2-yl)thiophene-2-carboxamide], the viability at 10 µM was 38%.
`CCCCOc1ccc(-c2nc(NC(=O)c3ccc([N+](=O)[O-])s3)sc2Oc2cc(C)c(Br)c(C)c2)cc1` [Compound 5-87, N-(5-(4-bromo-3,5-dimethylphenoxy)-4-(4-butoxyphenyl)thiazol-2-yl)-5-nitrothiophene-2-carboxamide] gave a viability at 10 µM of 36%.
With `CCCCOc1ccc(-c2nc(NC(=O)c3ccc([N+](=O)[O-])s3)sc2Oc2ccc(Br)cc2)cc1` [Compound 5-86, N-(5-(4-bromophenoxy)-4-(4-butoxyphenyl)thiazol-2-yl)-5-nitrothiophene-2-carboxamide] the viability at 10 µM was 24%.
Work on `CCOc1ccc(-c2nc(N(C)C(=O)c3ccc([N+](=O)[O-])s3)sc2Oc2ccccc2)cc1` [Compound 5-82, N-(4-(4-ethoxyphenyl)-5-phenoxythiazol-2-yl)-N-methyl-5-nitrothiophene-2-carboxamide] yielded a viability at 10 µM of 59%.
Compound `Cc1ccc(Oc2sc(NC(=O)c3ccc([N+](=O)[O-])s3)nc2-c2ccc(C(C)(C)C)cc2)cc1` [Compound 5-105, N-(4-(4-(tert-butyl)phenyl)-5-(p-tolyloxy)thiazol-2-yl)-5-nitrothiophene-2-carboxamide] has a viability at 10 µM of 30%.
With `CCCOc1ccc(-c2nc(NC(=O)c3ccc([N+](=O)[O-])s3)sc2Oc2cc(C)c(Br)c(C)c2)cc1` [Compound 5-28, N-(5-(4-bromo-3,5-dimethylphenoxy)-4-(4-propoxyphenyl)thiazol-2-yl)-5-nitrothiophene-2-carboxamide] the viability at 10 µM was 32%.
In the case of `CCOc1ccc(-c2nc(NC(=O)c3ccc([N+](=O)[O-])s3)sc2Oc2cccc(F)c2)cc1` [Compound 5-54, N-(4-(4-ethoxyphenyl)-5-(3-fluorophenoxy)thiazol-2-yl)-5-nitrothiophene-2-carboxamide], the viability at 10 µM is reported as 35%.
In the case of `CCOc1ccc(-c2nc(NC(=O)c3ccc([N+](=O)[O-])s3)sc2Oc2ccccc2)c(OCC)c1` [Compound 5-12, N-(4-(2,4-diethoxyphenyl)-5-phenoxythiazol-2-yl)-5-nitrothiophene-2-carboxamide], the viability at 10 µM is reported as 46%.
Work on `COc1ccc(-c2nc(NC(=O)c3ccc([N+](=O)[O-])s3)sc2Oc2ccccc2)cc1` [Compound 5-34, N-(4-(4-methoxyphenyl)-5-phenoxythiazol-2-yl)-5-nitrothiophene-2-carboxamide] yielded a viability at 10 µM of 54%.
Work on `O=C(Nc1nc(-c2ccc(F)cc2)c(Oc2ccccc2C(F)(F)F)s1)c1ccc([N+](=O)[O-])s1` [Compound 5-31, N-(4-(4-fluorophenyl)-5-(2-(trifluoromethyl)phenoxy)thiazol-2-yl)-5-nitrothiophene-2-carboxamide] yielded a viability at 10 µM of 48%.
`CCCOc1ccc(-c2nc(NC(=O)c3ccc([N+](=O)[O-])s3)sc2Oc2ccc(F)cc2F)cc1` [Compound 5-37, N-(5-(2,4-difluorophenoxy)-4-(4-propoxyphenyl)thiazol-2-yl)-5-nitrothiophene-2-carboxamide] showed a viability at 10 µM of 38%.
`CCCCc1ccc(Oc2sc(NC(=O)c3ccc([N+](=O)[O-])s3)nc2-c2ccc(C(C)(C)C)cc2)cc1` [Compound 5-89, N-(4-(4-(tert-butyl)phenyl)-5-(4-butylphenoxy)thiazol-2-yl)-5-nitrothiophene-2-carboxamide] gave a viability at 10 µM of 36%.

Same assay, conditions: Homo sapiens, Table 6, ratio of number of tumor cells treated with 10 μM compound to non-treated cells
`O=C(Nc1nc(-c2ccccc2[N+](=O)[O-])c(Br)s1)c1ccc([N+](=O)[O-])s1` [Compound 6-12, N-(5-bromo-4-(2-nitrophenyl)thiazol-2-yl)-5-nitrothiophene-2-carboxamide] was tested, and the viability at 10 µM was 67%.
For `CCCOc1ccc(-c2nc(NC(=O)c3ccc([N+](=O)[O-])s3)sc2C(=O)N2CCN(C)CC2)cc1` [Compound 6-30, N-(5-(4-methylpiperazine-1-carbonyl)-4-(4-propoxyphenyl)thiazol-2-yl)-5-nitrothiophene-2-carboxamide], the viability at 10 µM was 58%.
With `CCOC(=O)c1sc(NC(=O)c2ccc([N+](=O)[O-])s2)nc1-c1ccc(C(C)(C)C)cc1` [Compound 6-42, ethyl 4-(4-(tert-butyl)phenyl)-2-(5-nitrothiophene-2-carboxamido)thiazole-5-carboxylate] the viability at 10 µM was 49%.
With `CCOc1ccc(-c2nc(NC(=O)c3ccc([N+](=O)[O-])s3)sc2N(C)c2ccccc2)cc1` [Compound 6-28, N-(4-(4-ethoxyphenyl)-5-(methyl (phenyl)amino)thiazol-2-yl)-5-nitrothiophene-2-carboxamide] the viability at 10 µM was 31%.
`Cc1ccc(-c2nc(NC(=O)c3ccc([N+](=O)[O-])s3)sc2-c2ccc(F)cc2)cc1` [Compound 6-6, N-(5-(4-fluorophenyl)-4-(p-tolyl)thiazol-2-yl)-5-nitrothiophene-2-carboxamide] was tested, and the viability at 10 µM was 48%.
